From EP1561465A2, “Methods of use of fluoroquinolone compounds against bacteria” (LG Life Sciences, Ltd., priority 1999, dated 2001)
Values after ≈ are worked out from the molar mass of the structure shown. Read-outs that look alike come from different tables or passages of the source.

Key:
Streptococcus pneumoniae [1] = test: MIC by E-test (broth microdilution for gemifloxacin), 107 pneumococcal carrier isolates, Athens 1998; type: cell-based; settings: for MIC Range: in µg/mL (unit assumed)
Procedure: Susceptibility testing was performed by agar dilution or epsilometer method (E-test), as recommended by the NCCLS. […] The susceptibility profiles of the strains were assessed using the Epsilometer method (E-test). The isolates were subdivided into two groups according to their penicillin susceptibility patterns (penicillin-susceptible and penicillin-intermediate.

Enterococcus faecalis = test: MIC by agar macrodilution (NCCLS), 373 Gram positive isolates, Athens 1998; type: cell-based
Staphylococcus aureus = test: as above; type: cell-based
Salmonella spp. = test: MIC by agar dilution (NCCLS M7-A4), 288 enteropathogenic isolates, gemifloxacin and 15 other antimicrobials; type: cell-based; settings: for Rates of non-susceptible microorganisms / susceptible isolates / isolates being resistant: Salmonella spp.; for susceptible isolates: breakpoints; for MIC: Salmonella
Hafnia alvei = test: as above; type: cell-based; settings: Hafnia alvei N= 32
Yersinia enterocolitica = test: as above; type: cell-based; settings: for MIC / % Susceptible / MIC (mg/L) 50% / MIC (mg/L) 90% / MIC (mg/L) Range: Yersinia enterocolitica N= 22
Shigella spp. = test: as above; type: cell-based; settings: for MIC / % Susceptible / MIC (mg/L) 50% / MIC (mg/L) 90% / MIC (mg/L) Range: Shigella spp. N= 21
Procedure: [A. hydrophila (12), and A. sobria (4)], and 91 Campylobacter jejuni. […] The strains were stored in skimmed-milk at -80 °C until studied.
The plates were incubated aerobically at 35 °C for 24 h, except for Campylobacter jejuni, where a microaerophilic atmosphere was obtained by using Campy Pack (Becton Dickinson, Cockeysville, MD, USA), and incubation was for 48 h. All organisms were tested with an inoculum of ≅ 10^4 cfu/spot. MICs were defined as the lower antibiotic concentration with no visible growth.

Aeromonas spp. = test: as above; type: cell-based; settings: for MIC / % Susceptible / MIC (mg/L) 50% / MIC (mg/L) 90% / MIC (mg/L) Range: Aeromonas spp. N= 16
Campylobacter jejuni = test: as above; settings: for MIC: Campylobacter jejuni; for % Susceptible / MIC (mg/L) 50% / MIC (mg/L) 90% / MIC (mg/L) Range: Campylobacter jejuni N= 91
Streptococcus pneumoniae [2] = test: MIC by agar dilution (NCCLS), 411 isolates Buenos Aires 1998-99; type: cell-based; settings: S. pneumoniae
[3] = continuation of the preceding table (title not shown), 14 isolates
[4] = 24 h, read-out: MIC (mg/L) Range

Compound: CN[C@H](CC(C)C)C(=O)N[C@H]1C(=O)N[C@@H](CC(N)=O)C(=O)N[C@H]2C(=O)N[C@H]3C(=O)N[C@H](C(=O)N[C@H](C(=O)O)c4cc(O)cc(O)c4-c4cc3ccc4O)[C@H](O)c3ccc(c(Cl)c3)Oc3cc2cc(c3O[C@@H]2O[C@H](CO)[C@@H](O)[C@H](O)[C@H]2O[C@H]2C[C@](C)(N)[C@H](O)[C@H](C)O2)Oc2ccc(cc2Cl)[C@H]1O [Vancomycin]
- MIC Range (Streptococcus pneumoniae [1]; Penicillin-intermediate S. pneumoniae (n = 24), E-test): 0.19-1.5
- MIC90 (Streptococcus pneumoniae [1]; Penicillin-intermediate S. pneumoniae (n = 24), E-test, unit assumed): 1 µg/mL (≈ 0.69 µM)
- MIC Range (Streptococcus pneumoniae [1]; Penicillin-susceptible S. pneumoniae (n = 107), E-test): 0.064-2
- MIC90 (Streptococcus pneumoniae [1]; Streptococcus pneumoniae): 1 µg/mL (≈ 0.69 µM)
- MIC50 (Streptococcus pneumoniae [1]; Streptococcus pneumoniae, Penicillin-intermediate S. pneumoniae (n = 24), E-test): 0.75 µg/mL (≈ 0.518 µM)
- MIC50 (Streptococcus pneumoniae [1]; Streptococcus pneumoniae, Penicillin-susceptible S. pneumoniae (n = 107), E-test): 0.5 µg/mL (≈ 0.345 µM)
- MIC distribution (µg/ml) 0.03 (Enterococcus faecalis): 0
- MIC distribution (µg/ml) 0.06 (Enterococcus faecalis): 0
- MIC distribution (µg/ml) 0.125 (Enterococcus faecalis): 0
- MIC distribution (µg/ml) 0.25 (Enterococcus faecalis): 0
- MIC distribution (µg/ml) 0.5 (Enterococcus faecalis): 0
- MIC distribution (µg/ml) 1 (Enterococcus faecalis): 4
- MIC distribution (µg/ml) 4 (Enterococcus faecalis): 6
- MIC distribution (µg/ml) 8 (Enterococcus faecalis): 0
- MIC distribution (µg/ml) 16 (Enterococcus faecalis): 0
- MIC distribution (µg/ml) ≤0.015 (Enterococcus faecalis): 0
- MIC50 (Enterococcus faecalis; Enterococcus faecalis): 2 µg/mL (≈ 1.38 µM)
- MIC90 (Enterococcus faecalis; Enterococcus faecalis): 4 µg/mL (≈ 2.76 µM)
- MIC50 (Enterococcus faecalis; [3]): 2 µg/mL (≈ 1.38 µM)
- MIC90 (Enterococcus faecalis; [3]): 4 µg/mL (≈ 2.76 µM)
- MIC Range (Enterococcus faecalis; [3]): 1 to 4 µg/mL
- MIC distribution (µg/ml) 1 (Enterococcus faecalis; number of isolates at MIC 1 µg/ml, n = 81): 10
- MIC distribution (µg/ml) 4 (Enterococcus faecalis; number of isolates at MIC 4 µg/ml, n = 81): 40
- MIC Range (Staphylococcus aureus; Methicillin-susceptible Staphylococcus aureus (n = 85)): 0.5 to 2 µg/mL
- MIC50 (Staphylococcus aureus; Staphylococcus aureus): 1 µg/mL (≈ 0.69 µM)
- MIC90 (Staphylococcus aureus; Staphylococcus aureus): 2 µg/mL (≈ 1.38 µM)

Compound: CC1(C)S[C@@H]2[C@H](NC(=O)[C@H](N)c3ccccc3)C(=O)N2[C@H]1C(=O)O [ampicillin]
- Rates of non-susceptible microorganisms (Salmonella spp.): 23%
- susceptible isolates (Salmonella spp.): 77%
- MIC (Salmonella spp.; read-out: MIC (mg/L) 50%, Salmonella spp. N= 106): 4 mg/L (≈ 11.4 µM)
- MIC (Salmonella spp.; read-out: MIC (mg/L) 90%, Salmonella spp. N= 106): > 128 mg/L
- MIC (Hafnia alvei; [4]): 2 to 64 mg/L (≈ 5.72 to 183 µM)
- MIC (Hafnia alvei; read-out: MIC (mg/L) 50%): 16 mg/L (≈ 45.8 µM)
- MIC (Hafnia alvei; read-out: MIC (mg/L) 90%): 64 mg/L (≈ 183 µM)
- MIC (Yersinia enterocolitica; [4]): 32 to 64 mg/L (≈ 91.6 to 183 µM)
- susceptibility of isolates (Yersinia enterocolitica; Yersinia enterocolitica): non susceptible
- MIC (Yersinia enterocolitica; read-out: MIC (mg/L) 50%): 32 mg/L (≈ 91.6 µM)
- MIC (Yersinia enterocolitica; read-out: MIC (mg/L) 90%): 64 mg/L (≈ 183 µM)
- susceptible isolates (Shigella spp.; Shigella spp., breakpoints): 43%
- MIC (Shigella spp.; read-out: MIC (mg/L) 50%): 64 mg/L (≈ 183 µM)
- MIC (Shigella spp.; read-out: MIC (mg/L) 90%): > 128 mg/L
- susceptibility of isolates (Aeromonas spp.; Aeromonas spp.): non susceptible
- MIC (Aeromonas spp.; read-out: MIC (mg/L) 50%): > 128 mg/L
- MIC (Aeromonas spp.; read-out: MIC (mg/L) 90%): > 128 mg/L
- MIC (Campylobacter jejuni; read-out: MIC (mg/L) 50%): 8 mg/L (≈ 22.9 µM)
- MIC (Campylobacter jejuni; read-out: MIC (mg/L) 90%): 32 mg/L (≈ 91.6 µM)

Compound: co-trimoxazole
- MIC90 (Streptococcus pneumoniae [2]; Penicillin intermediate (n = 17)): 8 µg/mL
- MIC90 (Streptococcus pneumoniae [2]; Penicillin resistant (n = 4)): >16 µg/mL
- MIC90 (Streptococcus pneumoniae [2]; Penicillin susceptible (n = 69)): 8 µg/mL
- Rates of non-susceptible microorganisms (Salmonella spp.): 4%
- isolates being resistant (Salmonella spp.): 4%
- isolates being resistant (Campylobacter jejuni; C. jejuni): 4%

Compound: colistin
- % Susceptible (Salmonella spp.; Salmonella spp. N= 106): 32%
- MIC (mg/L) 50% (Salmonella spp.; Salmonella spp. N= 106): 8 mg/L
- MIC (mg/L) 90% (Salmonella spp.; Salmonella spp. N= 106): 8 mg/L
- susceptible isolates (Salmonella spp.): 32%
- % Susceptible (Hafnia alvei): 6%
- MIC (mg/L) 50% (Hafnia alvei): 8 mg/L
- MIC (mg/L) 90% (Hafnia alvei): 16 mg/L
- MIC (mg/L) Range (Hafnia alvei): 0.5 to 16 mg/L
- % Susceptible (Yersinia enterocolitica): 100%
- MIC (mg/L) 50% (Yersinia enterocolitica): 1 mg/L
- MIC (mg/L) 90% (Yersinia enterocolitica): 1 mg/L
- MIC (mg/L) Range (Yersinia enterocolitica): 0.5 to 1 mg/L
- % Susceptible (Shigella spp.): 100%
- MIC (mg/L) 50% (Shigella spp.): 0.25 mg/L
- MIC (mg/L) 90% (Shigella spp.): 0.25 mg/L
- MIC (mg/L) Range (Shigella spp.): 0.25 mg/L
- % Susceptible (Aeromonas spp.): 81%
- MIC (mg/L) 50% (Aeromonas spp.): 2 mg/L
- MIC (mg/L) 90% (Aeromonas spp.): 4 mg/L
- MIC (mg/L) Range (Aeromonas spp.): 0.25 to 32 mg/L
- % Susceptible (Campylobacter jejuni): 3%
- MIC (mg/L) 50% (Campylobacter jejuni): 4 mg/L
- MIC (mg/L) 90% (Campylobacter jejuni): 8 mg/L
- MIC (mg/L) Range (Campylobacter jejuni): 1 to 32 mg/L

Compound: gentamicin
- isolates being resistant (Salmonella spp.): 4%
- % Susceptible (Salmonella spp.; Salmonella spp. N= 106): 96%
- MIC (mg/L) 50% (Salmonella spp.; Salmonella spp. N= 106): 0.25 mg/L
- MIC (mg/L) 90% (Salmonella spp.; Salmonella spp. N= 106): 0.5 mg/L
- MIC (mg/L) Range (Salmonella spp.; Salmonella spp. N= 106): 0.12 to 128 mg/L
- % Susceptible (Hafnia alvei): 100%
- MIC (mg/L) 50% (Hafnia alvei): 0.25 mg/L
- MIC (mg/L) 90% (Hafnia alvei): 0.5 mg/L
- MIC (mg/L) Range (Hafnia alvei): 0.25 to 0.5 mg/L
- % Susceptible (Yersinia enterocolitica): 100%
- MIC (mg/L) 50% (Yersinia enterocolitica): 1 mg/L
- MIC (mg/L) 90% (Yersinia enterocolitica): 1 mg/L
- MIC (mg/L) Range (Yersinia enterocolitica): 0.5 to 1 mg/L
- % Susceptible (Shigella spp.): 100%
- MIC (mg/L) 50% (Shigella spp.): 1 mg/L
- MIC (mg/L) 90% (Shigella spp.): 1 mg/L
- MIC (mg/L) Range (Shigella spp.): 0.5 to 1 mg/L
- % Susceptible (Aeromonas spp.): 100%
- MIC (mg/L) 50% (Aeromonas spp.): 0.5 mg/L
- MIC (mg/L) 90% (Aeromonas spp.): 1 mg/L
- MIC (mg/L) Range (Aeromonas spp.): 0.25 to 1 mg/L
- % Susceptible (Campylobacter jejuni): 100%
- MIC (mg/L) 50% (Campylobacter jejuni): 0.25 mg/L
- MIC (mg/L) 90% (Campylobacter jejuni): 0.5 mg/L
- MIC (mg/L) Range (Campylobacter jejuni): 0.12 to 1 mg/L
